# Measurements published in patent US20120258975A1, “Potent Small Molecule Inhibitors of Autophagy, and Methods of Use Thereof” (Shanghai Institute of Organic Chemistry, priority 2009, published 2012).
# Assays:
# [1] = tested on: major intracellular organelles; experiment: Markers of intracellular organelles; format: cell-based
# Experimental: The effects of MBCQ on early endosomes using immunostaining of EEA1 as a marker, lysosomes using immunostaining of lamp2 as a marker or lysotracker, trans-Golgi using GalT-YFP as a marker was determined. No effect of MBCQ was detected in any of these experiments.
# LC3II = experiment: Endogenous LC3II western blot in H4-LC3, 293T and MEF cells; format: cell-based; conditions: MBCQ and rapamycin co-treated versus rapamycin alone
# Experimental: To confirm the inhibition of autophagy by MBCQ, H4-LC3 cells, 293T cells and mouse embryonic fibroblast cells were treated with MBCQ and the levels of endogenous LC3II were measured by western blot.
# H4 cells = experiment: H4 cell growth and cell cycle; format: cell-based; conditions: 5 μM for 24 h and 48 h
# Experimental: FIG. 6 depicts results showing that MBCQ has little effect on H4 cell growth. A, H4 cells were treated with MBCQ (5 μM) for 5 days and harvested daily for cell number counting in the presence of trypan blue; B, H4 cells were treated with MBCQ (5 μM) for 24 h and 48 h, and then cells were fixed with 70% ethanol, stained with propidium iodide (40 μg/mL) and incubated with RNase (200 μg/mL solution for 30 min. The cell cycle profile and possible apoptotic cell death were analyzed by flow cytometer.
# To characterize the effect of MBCQ on cellular activity, the effect of MBCQ on cell survival and cell cycle was determined as outlined below. H4 cells were treated with MBCQ (5 μM) for 5 days and harvested daily for cell number counting in the presence of trypan blue. […] The cell cycle profile and possible apoptotic cells in H4 cells treated with MBCQ (5 μM) for 24 h and 48 h was also determined.
# mTOR pathway = experiment: Western blotting of mTOR pathway phosphorylation; format: cell-based
# Text: Since MBCQ inhibits autophagy induced by rapamycin and starvation, it was first determined if MBCQ affects the activity of mTOR. […] Thus, it was concluded that MBCQ has no effect for the mTOR pathway or type I PI3 kinase.
# [2] = biological target: USP10 and USP13 interaction (Homo sapiens, UniProt Q14694+Q92995); experiment: GFP-USP10 / Myc-USP13 co-immunoprecipitation in 293T cells
# USP10 and USP13 interaction, sequence (Q14694 whole entry): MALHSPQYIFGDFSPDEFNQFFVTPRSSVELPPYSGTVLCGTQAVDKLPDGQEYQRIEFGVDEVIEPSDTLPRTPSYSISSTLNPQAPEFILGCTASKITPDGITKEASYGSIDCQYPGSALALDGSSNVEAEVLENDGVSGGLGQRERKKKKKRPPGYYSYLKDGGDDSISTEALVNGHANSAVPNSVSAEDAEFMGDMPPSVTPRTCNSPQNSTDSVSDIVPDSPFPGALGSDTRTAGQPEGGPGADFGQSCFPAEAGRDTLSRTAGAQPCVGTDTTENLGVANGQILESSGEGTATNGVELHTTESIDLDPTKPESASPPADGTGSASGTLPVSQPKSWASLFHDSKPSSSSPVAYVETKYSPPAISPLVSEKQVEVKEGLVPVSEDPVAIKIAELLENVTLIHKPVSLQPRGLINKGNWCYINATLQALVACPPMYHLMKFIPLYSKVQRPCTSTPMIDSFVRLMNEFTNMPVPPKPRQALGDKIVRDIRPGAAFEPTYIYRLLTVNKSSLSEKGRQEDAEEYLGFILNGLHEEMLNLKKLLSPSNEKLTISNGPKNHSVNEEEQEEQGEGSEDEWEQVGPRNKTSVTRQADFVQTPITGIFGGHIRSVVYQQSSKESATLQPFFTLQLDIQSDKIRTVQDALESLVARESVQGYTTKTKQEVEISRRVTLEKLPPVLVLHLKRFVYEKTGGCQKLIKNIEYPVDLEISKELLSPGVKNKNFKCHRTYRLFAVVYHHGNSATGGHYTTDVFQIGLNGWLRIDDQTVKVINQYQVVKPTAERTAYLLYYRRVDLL
# USP10 and USP13 interaction, sequence (Q92995 whole entry): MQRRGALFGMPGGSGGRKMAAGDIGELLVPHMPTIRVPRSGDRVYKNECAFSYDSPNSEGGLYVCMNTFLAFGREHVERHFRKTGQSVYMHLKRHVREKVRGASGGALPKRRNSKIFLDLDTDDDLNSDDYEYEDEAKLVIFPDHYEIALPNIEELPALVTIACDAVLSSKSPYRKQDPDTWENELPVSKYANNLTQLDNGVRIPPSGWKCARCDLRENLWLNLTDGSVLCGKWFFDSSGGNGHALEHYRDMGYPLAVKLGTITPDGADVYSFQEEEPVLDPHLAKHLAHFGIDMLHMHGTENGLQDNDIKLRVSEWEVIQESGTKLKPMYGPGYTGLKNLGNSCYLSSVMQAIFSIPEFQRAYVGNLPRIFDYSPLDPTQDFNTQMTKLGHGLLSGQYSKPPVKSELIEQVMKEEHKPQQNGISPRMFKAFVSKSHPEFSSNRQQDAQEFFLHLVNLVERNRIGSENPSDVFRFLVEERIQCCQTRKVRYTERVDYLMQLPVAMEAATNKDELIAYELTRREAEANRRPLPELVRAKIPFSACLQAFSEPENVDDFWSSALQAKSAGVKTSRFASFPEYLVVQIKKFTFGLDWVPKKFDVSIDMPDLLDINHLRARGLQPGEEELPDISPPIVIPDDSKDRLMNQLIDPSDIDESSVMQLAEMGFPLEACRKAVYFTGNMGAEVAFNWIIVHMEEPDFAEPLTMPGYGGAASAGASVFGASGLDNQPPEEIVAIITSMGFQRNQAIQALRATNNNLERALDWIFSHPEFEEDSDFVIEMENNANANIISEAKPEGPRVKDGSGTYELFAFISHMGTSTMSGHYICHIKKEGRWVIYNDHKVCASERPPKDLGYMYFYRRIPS
# [3] = tested on: autophagy (LC3) in pancreas; experiment: Cerulein induced pancreatitis model in rats; format: in vivo; conditions: 40 mg/kg intraperitoneally hourly for 4 times with cerulein
# Experimental: FIG. 13 depicts results showing the effect of MBCQ and derivatives in vivo. (A) Mice were injected with rapamycin (10 mg/kg) alone as a positive control, or with C43 or MBCQ (40 mg/kg) intraperitoneally every hour for 4 h and then sacrificed at 5 th h. The autophagy levels in liver were analyzed by western blotting using anti-LC3 antibody. (B) C43 reduces the levels of autophagy induced by cerulein. Rats were injected intraperitoneally with cerulein (50 μg/kg) alone or with C43 (40 mg/kg) hourly for 4 times. The rats were sacrificed at one h after the last injection and the pancreas were isolated for western blotting analysis using anti-LC3 and anti-tubulin (as a control).
# Since autophagy has been proposed to contribute to the tissue damage in pancreatitis, MBCQ derivatives were tested to see if they could reduce tissue damage induced by cerulein injection, a well-established animal model of pancreatitis (Hashimoto, D., Ohmuraya, M., Hirota, M., Yamamoto, A., Suyama, K., Ida, S., Okumura, Y., Takahashi, E., Kido, H., Araki, K., et al. (2008). Involvement of autophagy in trypsinogen activation within the pancreatic acinar cells. J Cell Biol 181, 1065-1072; and Ohmuraya, M., and Yamamura, K. (2008). Autophagy and acute pancreatitis: a novel autophagy theory for trypsinogen activation. Autophagy 4, 1060-1062). […]
# MCF-7 cells = MCF-7 cells under glucose-free condition; format: cell-based
# Experimental: FIG. 11 depicts results showing that selected cancer cell lines are sensitive to MBCQ and its active derivatives under glucose free condition. BT549 cells were treated with indicated concentrations of C43 for 24 h in normal DMEM (A) or under serum free condition (B). The cell viability was assayed by MTT or harvested for western blotting assay with anti-LC3 (C). MCF-7 cells were treated with DMSO (1‰), C43 (10 μM) in DMEM with (D) or without (E) glucose, for 12 h. The cell viability was assayed by MTT or images (F). […] Bcap-37 cells were treated with indicated concentrations of C43 for 24 h in normal DMEM (H) or under serum free condition (I). The cell viability was assayed by MTT or images (J) And the cell lysates treated with C43 for indicated time were analyzed by western blotting using anti-PARP (L) or anti-LC3 (M) and α-tubulin was used as a loading control. (K) Cell cycle profile of Bcap-37 treated with C43. Bcap-37 cells were treated with DMSO (0.1%) (left figure), C43 (10 μM) (right figure) for 12 h. The cells were then fixed with 70% ethanol, stained with propidium iodide (PI, 40 μg/mL) and treated with RNase enzyme (200 μg/mL) solution for 30 min in dark. Cell cycle profile and possible apoptotic death were statistics analyzed by flow cytometer. […]
# Hs578Bst cells = experiment: Hs578Bst cells; format: cell-based
# Experimental: A-B, MDCK cells were treated with DMSO (1‰) and spautin at indicated concentration in DMEM with or without glucose for 24 h. […] C-D, Hs578Bst cells were treated with DMSO (1‰) and C43 as indicated concentration in DMEM with or without glucose for 24 h.
# Hs578Bst cells, established from normal tissue peripheral to the tumor and is myoepithelial in origin, also were not sensitive to spautin (FIGS. 12C and 12D).
SMILES,"early endosomes (EEA1), lysosomes (lamp2, lysotracker), trans-Golgi (GalT-YFP) [1]",levels of LC3II (LC3II),cell cycle distribution (H4 cells),"phosphorylation of GSK-3α/β, AKT (mTOR pathway)","phosphorylation of mTOR and its targets, p70S6K and S6 (mTOR pathway; control or rapamycin treated cells)",GFP-USP10 and Myc-USP13 interaction [2],levels of autophagy induced by cerulein injection (pancreas) [3],"autophagy (western blot, LC3) (MCF-7 cells; basal and glucose-free condition)",cell survival (MCF-7 cells; glucose-free condition),sensitivity of cells to compound (Hs578Bst cells)
Clc1ccc2ncnc(NCc3ccc4c(c3)OCO4)c2c1 [MBCQ],No effect,consistently reduced,no detectable effect on cell cycle distribution,Nor does MBCQ have any effect,no effect on the phosphorylation of mTOR and its targets,,,,,
"Fc1ccc(CNc2ncnc3ccc(F)cc23)cc1 [C43, 6-fluoro-N-(4-fluorobenzyl)quinazolin-4-amine]",,,,,,the interaction was inhibited,significantly reduced the levels of autophagy,inhibited autophagy,reduced the survival,not sensitive
